The numbers were not newly measured in paper PMC2777304 (PLoS Pathogens, 2009), which cites them from elsewhere.

Counter-ions that a name gives are not always drawn.

The conditions of this data set: mouse, in vivo.

With `CCN(CC)CCCC(C)Nc1c2ccc(Cl)cc2nc2ccc(OC)cc12` (stereo not shown) [quinacrine, Quinacrine dihydrochloride], the “Highest nontoxic tolerable dose” value was 40 mg/kg/day.
